Measurements taken from publication PMC8765437, “GSK3640254 Is a Novel HIV-1 Maturation Inhibitor with an Optimized Virology Profile” (Antimicrobial Agents and Chemotherapy, 2022).
Read-outs that look alike come from different tables or passages of the source.

Test system: NLRepRlucP373S viruses containing Gag SDMs or gag/pr genes from clinical isolates
Assay: Multiple-cycle replication assay, NLRepRluc reporter viruses in MT-2 cells, luciferase endpoint
Format: cell-based, HIV-1
Excerpt: Multiple-cycle assays using recombinant viruses or clinical isolates were used to assess MI antiviral activity as described previously ([10]). pNLRepRlucP373S (the P373S change is in the Gag gene and converts an outlier polymorphism in the NL4-3 gene to the prevalent amino acid in the population) plasmids containing SDMs in Gag or gag/pr regions from clinical isolates were transfected into HEK 293T cells, and the supernatant containing recombinant virus was harvested after 4 to 5 days. Virus was used to infect MT-2 cells in the presence of a 3-fold serially diluted compound at a final dimethyl sulfoxide (DMSO) concentration of 1%. The inocula of the reporter viruses were determined based on the luciferase activity detected on day 4 postinfection. The MOI (ratio of infectious virions to target cells) of reporter-free laboratory strains and clinical isolates was 0.005, as derived from a tissue culture infectious dose study. Clinical isolates or reporter-free viruses were examined in the reporter CEM-NKR-CCR5-Luc cells or PBMCs at MOIs ranging from 0.005 to 0.01. Each infection started with a drug-free preincubation of the cell-virus mixtures, performed at 37°C and 5% CO2 for either 1 h at 2 times the final cell density (reporter viruses) or 1 h (reporter-free laboratory strains) or 3 h (clinical isolates) using cell pellets in 0.5 mL of medium. After preincubation, cell-virus mixtures were added to compound-containing 96-well plates for a final cell density of either 10,000 (MT-2 cells for reporter viruses), 20,000 (MT-2 and PM1 cells for reporter-free laboratory strains), 200,000 (PBMCs for clinical isolates), or 500,000 (CEM-NKR-CCR5-Luc for reporter-free laboratory strains) cells per well. The CEM-NKR-CCR5-Luc cell assay was performed in the presence of Polybrene (10 μg/mL). Virus growth was determined on days 4 to 5 postinfection for reporter variants or days 5 to 11 for the other viruses. The reporter viruses were detected by a luciferase assay according to manufacturer protocols (Brite-Glo luciferase kit [Promega] for CEM-NKR-CCR5-Luc cells and Dual-Luciferase Reporter 1000 assay system [Promega] for the other cells), and luminescence was detected on a Wallac Trilux. The growth of clinical isolates in PBMCs was quantitated by reverse transcriptase activity in a 96-well scintillation proximity assay (SPA). Twenty microliters of culture supernatants was mixed with 40 μL of reaction cocktail (62.5 mM Tris-HCl [pH 7.8], 100 mM KCl, 0.0625% NP-40, 2.5 mM dithiothreitol [DTT], 6.25 mM MgCl2, 1 mM EGTA, 6.25 μg/mL of poly rA, 2.5 μg/mL of streptavidin SPA beads prebound with biotinylated-dT12-18, and 1 μCi of [^3H]TTP). Mixtures were incubated at 37°C for ∼3 h and quenched with 100 μl of 0.25 M EDTA per well. Luminescence was detected on a Wallac Trilux programmed for tritium counting with SPA beads in opaque plates. The growth of the reporter-free laboratory M-tropic strains and clinical isolates was monitored by a p24 enzyme-linked immunosorbent assay (ELISA; PerkinElmer Life Sciences, Waltham, MA) performed on culture supernatants. […] A 1:1,000 dilution of cell supernatant in PBS was generally observed to fall in the dynamic range of the endpoint signal.
Maximal percent inhibition values were calculated as MPI = 100 – (mean signals at the 2 highest concentrations of compound/mean signal of 2 no-drug control wells) × 100.

For `C=C(C)[C@@H]1CC[C@]2(NCCN3CCS(=O)(=O)CC3)CC[C@]3(C)[C@H](CC[C@@H]4[C@@]5(C)CC=C(c6ccc(C(=O)O)cc6)C(C)(C)[C@@H]5CC[C@]43C)[C@@H]12` [GSK’795, reference compound], the MPI (A366V-containing viruses) was −13 to 408%, the EC50 (Human immunodeficiency virus 1, MT2, Table S1, SDM A326T/V362I/V370A) was at least 3 µM and the EC50 (Human immunodeficiency virus 1, MT2, Table S1, SDM S368R/V370A) was 0.002 µM. It also gave an EC50 (Human immunodeficiency virus 1, MT2, Table S1, SDM T332S/V362I/PrR41G) of 0.7 µM, an EC50 (Human immunodeficiency virus 1, MT2, Table S1, SDM V362I/V370A) of at least 3 µM and an EC50 (Human immunodeficiency virus 1, MT2, Table S1, SDM V370A) of 0.006 µM. It also gave an EC50 (Human immunodeficiency virus 1, MT2, Table S1, SDM V370A/ΔT371) of 0.007 µM, an EC50 (Human immunodeficiency virus 1, MT2, Table S1, SDM ΔV370) of 0.006 µM and an EC50 (Human immunodeficiency virus 1, MT2, Table S1, subtype B SDM Wild-type (V, QVT)) of 0.005 µM. For the same molecule, the EC50 (Human immunodeficiency virus 1, MT2, read-out: EC50 (range), Subtype C gag/pr viruses, n=11) was 0.003 to 0.022 µM, the EC50 (Human immunodeficiency virus 1, MT2, read-out: EC50 (range), V362I only viruses, n=9) was 0.003 to 0.054 µM and the EC50 (Human immunodeficiency virus 1, MT2, read-out: EC50 (range), Wild-type subtype B, n=5) was 0.001 to 0.006 µM. The EC50 (Human immunodeficiency virus 1, MT2, read-out: Mean ± SD EC50, A366V-containing viruses (A366V, V362I/A366V, V362I/A366V/V370M, A366V/V370M)) was over 3 µM, the EC50 (Human immunodeficiency virus 1, MT2, read-out: Mean ± SD EC50, SDM A326T/V362I/V370A) was over 3 µM and the EC50 (Human immunodeficiency virus 1, MT2, read-out: Mean ± SD EC50, SDM A364V) was over 3 µM. It also gave an EC50 (Human immunodeficiency virus 1, MT2, read-out: Mean ± SD EC50, SDM R361K/V362I/L363M) of 0.552 ± 0.971 µM, an EC50 (Human immunodeficiency virus 1, MT2, read-out: Mean ± SD EC50, SDM T332S/V362I/prR41G) of 0.704 ± 0.606 µM and an EC50 (Human immunodeficiency virus 1, MT2, read-out: Mean ± SD EC50, SDM V362I/V370A) of over 3 µM. For the same molecule, the EC50 (Human immunodeficiency virus 1, MT2, read-out: Mean ± SD EC50, SDM V370A) was 0.006 µM, the EC50 (Human immunodeficiency virus 1, MT2, read-out: Mean ± SD EC50, SDM Wild type) was 0.005 ± 0.003 µM and the EC50 (Human immunodeficiency virus 1, MT2, read-out: Mean ± SD EC50, SDM ΔV370) was 0.006 ± 0.002 µM. It also gave an EC50 (Human immunodeficiency virus 1, MT2, read-out: Mean ± SD EC50, Subtype B gag/pr viruses, n=24) of 0.066 µM, an EC50 (Human immunodeficiency virus 1, MT2, read-out: Mean ± SD EC50, Subtype C gag/pr viruses, n=11) of 0.0091 ± 0.0056 µM and an EC50 (Human immunodeficiency virus 1, MT2, read-out: Mean ± SD EC50, V362I only viruses, n=9) of 0.0111 ± 0.0163 µM. It also gave an EC50 (Human immunodeficiency virus 1, MT2, read-out: Mean ± SD EC50, V362I/ΔV370 virus, n=1) of 1.4 µM, an EC50 (Human immunodeficiency virus 1, MT2, read-out: Mean ± SD EC50, Wild-type subtype B (V362, Q369, V370, T371), n=5) of 0.0028 ± 0.0025 µM and an EC50 (Human immunodeficiency virus 1, MT2, read-out: Median EC50, Subtype B gag/pr viruses, n=24) of 0.005 µM. For the same molecule, the EC50 (Human immunodeficiency virus 1, MT2, read-out: Median EC50, Subtype C gag/pr viruses, n=11) was 0.007 µM, the EC50 (Human immunodeficiency virus 1, MT2, read-out: Median EC50, V362I only viruses, n=9) was 0.005 µM and the EC50 (Human immunodeficiency virus 1, MT2, read-out: Median EC50, Wild-type subtype B, n=5) was 0.001 µM. For the same molecule, the EC90 (Human immunodeficiency virus 1, MT2, read-out: PBA EC90, Table S1, SDM R361K/V362I/L363M) was 321 µM, the EC90 (Human immunodeficiency virus 1, MT2, read-out: PBA EC90, Table S1, SDM S368R/V370A) was 0.04 µM and the EC90 (Human immunodeficiency virus 1, MT2, read-out: PBA EC90, Table S1, SDM T332S/V362I/PrR41G) was 422 µM. The EC90 (Human immunodeficiency virus 1, MT2, read-out: PBA EC90, Table S1, SDM V370A) was 0.05 µM, the EC90 (Human immunodeficiency virus 1, MT2, read-out: PBA EC90, Table S1, SDM V370A/ΔT371) was 0.23 µM and the EC90 (Human immunodeficiency virus 1, MT2, read-out: PBA EC90, Table S1, SDM ΔV370) was 1.03 µM. For the same molecule, the EC90 (Human immunodeficiency virus 1, MT2, read-out: PBA EC90, Table S1, subtype B SDM Wild-type (V, QVT)) was 0.11 µM, the EC90 (Human immunodeficiency virus 1, MT2, read-out: PBA EC90, subtype B gag/pr 4NRR (Wild-type)) was 0.07 µM and the EC90 (Human immunodeficiency virus 1, MT2, read-out: PBA EC90, subtype B gag/pr 28-MDR (Wild-type)) was 0.1 µM. For the same molecule, the EC90 (Human immunodeficiency virus 1, MT2, read-out: PBA EC90, subtype B gag/pr 92BR014 (V370M)) was 0.37 µM, the EC90 (Human immunodeficiency virus 1, MT2, read-out: PBA EC90, subtype B gag/pr 92BR018 (V, QAΔ)) was 0.97 µM and the EC90 (Human immunodeficiency virus 1, MT2, read-out: PBA EC90, subtype B gag/pr 92TH014 (V362I)) was 0.67 µM. The EC90 (Human immunodeficiency virus 1, MT2, read-out: PBA EC90, subtype B gag/pr 92TH026 (V362I)) was 0.21 µM, the EC90 (Human immunodeficiency virus 1, MT2, read-out: PBA EC90, subtype B gag/pr 92US072 (V362I)) was 0.13 µM and the EC90 (Human immunodeficiency virus 1, MT2, read-out: PBA EC90, subtype B gag/pr 92US729 (Wild-type)) was 0.07 µM. For the same molecule, the EC90 (Human immunodeficiency virus 1, MT2, read-out: PBA EC90, subtype B gag/pr 93BR008 (V362I)) was 0.12 µM, the EC90 (Human immunodeficiency virus 1, MT2, read-out: PBA EC90, subtype B gag/pr 93BR009 (V370M)) was 0.13 µM and the EC90 (Human immunodeficiency virus 1, MT2, read-out: PBA EC90, subtype B gag/pr 93BR017 (V, QAΔ)) was 0.6 µM. The EC90 (Human immunodeficiency virus 1, MT2, read-out: PBA EC90, subtype B gag/pr 93BR022 (V, QAΔ)) was 0.63 µM, the EC90 (Human immunodeficiency virus 1, MT2, read-out: PBA EC90, subtype B gag/pr 93TH0647 (V362I)) was 0.06 µM and the EC90 (Human immunodeficiency virus 1, MT2, read-out: PBA EC90, subtype B gag/pr 93US141 (V362I)) was 0.25 µM. For the same molecule, the EC90 (Human immunodeficiency virus 1, MT2, read-out: PBA EC90, subtype B gag/pr 411-1-C (Wild-type)) was 0.04 µM, the EC90 (Human immunodeficiency virus 1, MT2, read-out: PBA EC90, subtype B gag/pr 220162 (Wild-type)) was 0.6 µM and the EC90 (Human immunodeficiency virus 1, MT2, read-out: PBA EC90, subtype B gag/pr 400024 (V370M)) was 79 µM. For the same molecule, the EC90 (Human immunodeficiency virus 1, MT2, read-out: PBA EC90, subtype B gag/pr 400051 (V370A)) was 0.03 µM and the EC90 (Human immunodeficiency virus 1, MT2, read-out: PBA EC90, subtype B gag/pr 1000038 (V362I/V370A)) was 977 µM.
